According to ChEMBL document CHEMBL5523742 (J Med Chem, 2024):
Activity calls are given as the source filed them. The rule behind the calls is not given here. Numbered stars: 1 amine (or outer) side, 2 acyl side, 3 side chain; on linkers, the order of the positions; unused ones are H or OH. Square brackets hold non-standard residues; d marks the D form. Side chains are listed from the residue outwards. Peptide text beside a SMILES is read from it. * marks the point of attachment. ξ: configuration not given here. C20 diacid = O=C(O)CCCCCCCCCCCCCCCCCCC(=O)*; γGlu = O=C(O)[C@H](CCC(=O)[*:2])N[*:1]; ξγGlu = O=C(O)C(CCC(=O)[*:2])N[*:1]; AEEA = NCCOCCOCC(=O)O; Aib = CC(C)(N)C(=O)O

Key:
[1] = target: T1, Gastric inhibitory polypeptide receptor (Homo sapiens) (UniProt P48546); assay: Activation of GIPR (unknown origin) upto 3000 nM
T1 sequence (whole entry): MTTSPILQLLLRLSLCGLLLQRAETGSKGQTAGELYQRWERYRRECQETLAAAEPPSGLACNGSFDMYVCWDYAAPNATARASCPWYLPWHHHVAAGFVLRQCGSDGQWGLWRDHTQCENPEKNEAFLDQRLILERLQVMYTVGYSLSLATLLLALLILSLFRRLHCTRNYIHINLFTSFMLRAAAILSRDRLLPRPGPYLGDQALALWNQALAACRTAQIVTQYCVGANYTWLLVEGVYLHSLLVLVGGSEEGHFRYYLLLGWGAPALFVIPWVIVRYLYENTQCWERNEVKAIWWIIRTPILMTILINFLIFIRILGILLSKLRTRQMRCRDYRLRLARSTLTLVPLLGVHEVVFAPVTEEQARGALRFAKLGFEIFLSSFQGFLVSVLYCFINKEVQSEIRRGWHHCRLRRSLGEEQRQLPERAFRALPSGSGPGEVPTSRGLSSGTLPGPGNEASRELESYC

Homo sapiens = organism: Homo sapiens; assay: Selectivity index, ratio of EC50 for agonist activity human SCTR stably expressed in CHO-K1 cells assessed as […] in cAMP accumulation to EC50 for agonist activity human GLP-1R stably expressed in CHO-K1 cells assessed as […] in cAMP accumulation; assay type: cell-based
[2] = target: T2, Glucagon-like peptide 2 receptor (Homo sapiens) (UniProt O95838); assay: Activation of GLP-2R (unknown origin) upto 3000 nM
T2 sequence (whole entry): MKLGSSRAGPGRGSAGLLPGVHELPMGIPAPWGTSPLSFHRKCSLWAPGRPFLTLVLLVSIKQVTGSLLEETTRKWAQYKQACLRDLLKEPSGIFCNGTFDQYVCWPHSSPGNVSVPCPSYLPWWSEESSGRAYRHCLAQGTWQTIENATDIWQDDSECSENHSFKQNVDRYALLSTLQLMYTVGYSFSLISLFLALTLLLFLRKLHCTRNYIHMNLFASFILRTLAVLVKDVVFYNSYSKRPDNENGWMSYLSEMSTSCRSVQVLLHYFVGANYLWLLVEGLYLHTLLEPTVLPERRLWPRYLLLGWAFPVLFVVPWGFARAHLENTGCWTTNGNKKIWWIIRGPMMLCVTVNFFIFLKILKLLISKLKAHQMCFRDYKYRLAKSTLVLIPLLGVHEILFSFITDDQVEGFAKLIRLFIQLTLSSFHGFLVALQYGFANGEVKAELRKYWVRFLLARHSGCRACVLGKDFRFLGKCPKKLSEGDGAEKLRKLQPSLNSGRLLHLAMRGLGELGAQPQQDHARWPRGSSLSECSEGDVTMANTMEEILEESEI

Mus musculus [3] = assay: Protection against diet-induced obesity in C57BL/6JRj mouse model assessed as reduction in whole-body adipose tissue mass at 3 to 30 nmol/kg administered once daily for 28 days; assay type: functional, organism-based; conditions: dose 3-30 nmol/kg, time 28.0 day
[4] = target: Glucagon receptor (Homo sapiens) (UniProt P47871); assay: Activation of GCGR (unknown origin) upto 3000 nM
Sequence of Glucagon receptor (Homo sapiens) (P47871 whole entry): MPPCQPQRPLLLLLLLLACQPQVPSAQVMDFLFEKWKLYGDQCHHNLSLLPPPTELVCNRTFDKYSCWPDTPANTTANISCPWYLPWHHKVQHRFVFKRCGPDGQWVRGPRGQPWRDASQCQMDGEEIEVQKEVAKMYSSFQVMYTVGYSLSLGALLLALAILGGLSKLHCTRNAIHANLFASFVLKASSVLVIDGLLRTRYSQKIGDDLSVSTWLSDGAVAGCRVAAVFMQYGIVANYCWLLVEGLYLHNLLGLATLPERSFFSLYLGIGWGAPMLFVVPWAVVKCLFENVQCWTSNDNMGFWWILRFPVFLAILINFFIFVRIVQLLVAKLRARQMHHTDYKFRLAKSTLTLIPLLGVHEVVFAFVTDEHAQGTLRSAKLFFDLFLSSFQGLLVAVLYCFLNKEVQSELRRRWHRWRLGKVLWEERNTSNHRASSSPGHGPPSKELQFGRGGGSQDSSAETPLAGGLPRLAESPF

Mus musculus [5] = assay: Protection against diet-induced obesity in sc dosed C57BL/6JRj mouse model assessed as reduction in food intake administered once daily for 28 days and measured after 2 to 3 days; assay type: functional, organism-based; conditions: dose 3-30 nmol/kg, time 28-31 day
[6] = Chemical stability of compound at pH 7 assessed as compound degradation; assay type: physicochemical; conditions: buffer
Secretin receptor = Secretin receptor (Homo sapiens, UniProt P47872); assay: Agonist activity human SCTR stably expressed in CHO-K1 cells assessed as […] in cAMP accumulation incubated for 30 mins by TR-FRET assay; assay type: functional, cell-based
Sequence of Secretin receptor (P47872 whole entry): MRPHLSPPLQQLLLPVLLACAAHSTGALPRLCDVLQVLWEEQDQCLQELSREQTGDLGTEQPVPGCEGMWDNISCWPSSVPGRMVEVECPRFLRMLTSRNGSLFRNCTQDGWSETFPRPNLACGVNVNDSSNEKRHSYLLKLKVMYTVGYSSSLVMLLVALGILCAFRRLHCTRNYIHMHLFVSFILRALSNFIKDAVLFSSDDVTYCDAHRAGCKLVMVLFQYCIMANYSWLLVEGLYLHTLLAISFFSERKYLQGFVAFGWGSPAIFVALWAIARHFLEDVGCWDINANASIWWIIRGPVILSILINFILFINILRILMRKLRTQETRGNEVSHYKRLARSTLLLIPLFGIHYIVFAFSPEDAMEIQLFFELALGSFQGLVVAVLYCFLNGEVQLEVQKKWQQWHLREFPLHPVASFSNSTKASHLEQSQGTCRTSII

[7] = Chemical stability of compound at pH 8 assessed as compound degradation; assay type: physicochemical; conditions: buffer; for degraded: read-out: Drug degradation
[8] = target: Glucagon-like peptide 1 receptor (Homo sapiens, UniProt P43220); assay: Agonist activity human GLP-1R stably expressed in CHO-K1 cells assessed as […] in cAMP accumulation incubated for 30 mins by TR-FRET assay; assay type: functional, cell-based
Sequence of Glucagon-like peptide 1 receptor (P43220 whole entry): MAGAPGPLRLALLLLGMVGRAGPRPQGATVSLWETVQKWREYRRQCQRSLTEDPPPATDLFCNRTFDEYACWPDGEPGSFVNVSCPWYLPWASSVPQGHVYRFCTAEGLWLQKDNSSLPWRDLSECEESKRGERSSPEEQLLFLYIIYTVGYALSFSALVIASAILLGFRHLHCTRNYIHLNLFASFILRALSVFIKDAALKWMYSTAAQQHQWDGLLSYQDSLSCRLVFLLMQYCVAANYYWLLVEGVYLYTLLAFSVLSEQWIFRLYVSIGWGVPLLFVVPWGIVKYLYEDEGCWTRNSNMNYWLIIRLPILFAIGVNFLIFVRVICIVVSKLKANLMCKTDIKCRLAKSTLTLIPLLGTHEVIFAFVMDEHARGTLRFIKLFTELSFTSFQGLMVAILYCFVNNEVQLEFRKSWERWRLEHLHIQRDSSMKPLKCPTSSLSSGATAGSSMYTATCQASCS

[9] = Drug concentration in sc dosed C57BL/6JRj mouse plasma administered once daily for 28 days and measured after 24 hrs by LC-MS/MS analysis; assay type: ADME, organism-based; conditions: in vivo, 696 h, dose 3-30 nmol/kg, time 29 day
[10] = Toxicity in sc dosed C57BL/6JRj mouse model assessed as reduction in body weight administered once daily for 28 days; assay type: organism-based; conditions: in vivo, 672 h, dose 3-30 nmol/kg, time 28 day

Which Activity [1] does the source give for CC(C)C[C@H](NC(=O)[C@H](Cc1ccccc1)NC(=O)[C@H](CCCNC(=N)N)NC(=O)[C@H](CCC(N)=O)NC(=O)[C@H](CC(C)C)NC(=O)C(C)(C)NC(=O)[C@H](C)NC(=O)[C@H](CCC(=O)O)NC(=O)[C@H](CCC(=O)O)NC(=O)[C@H](CCCCNC(=O)COCCOCCNC(=O)COCCOCCNC(=O)CCC(NC(=O)CCCCCCCCCCCCCCCCCCC(=O)O)C(=O)O)NC(=O)[C@H](CC(C)C)NC(=O)[C@H](Cc1ccc(O)cc1)NC(=O)[C@H](CO)NC(=O)[C@@H](NC(=O)[C@H](CC(=O)O)NC(=O)[C@H](CO)NC(=O)[C@@H](NC(=O)[C@H](Cc1ccccc1)NC(=O)[C@@H](NC(=O)CNC(=O)[C@H](CCC(=O)O)NC(=O)C(C)(C)NC(=O)[C@@H](N)Cc1c[nH]cn1)[C@@H](C)O)[C@@H](C)O)C(C)C)C(=O)N[C@@H](CCC(=O)O)C(=O)N[C@@H](Cc1c[nH]cn1)C(=O)N[C@@H](CC(C)C)C(=O)N[C@H](C(N)=O)C(C)C (some centres not stated) (H-H[Aib]EGTFTSDVSYLK([AEEA-AEEA-ξγGlu-C20 diacid])EEA[Aib]LQRFLEHLV-NH2) here?
The Activity was “inactive”.

And the Ratio EC50 (Homo sapiens)?
Its Ratio EC50 is 10600.

What about the Activity [2] of the same molecule?
Its Activity is “inactive”.

And the Activity (Mus musculus [3])?
The Activity was “Active”.

What about the Activity [4] of the same molecule?
The Activity was “inactive”.

What about the Activity (Mus musculus [5]) of the same molecule?
Its Activity is “Dose-Dependent Effect”.

With SECRETIN [listing 1 of 2 here] as the molecule, how does the Ratio EC50 (Homo sapiens) read?
The Ratio EC50 was 1 10^-6No_unit.

Which results are given for SECRETIN [listing 2 of 2 here]?
Drug degradation [6]: 8.6%; EC50 (Secretin receptor; cho-k1): 0.002 nM; Drug degradation [7]: 9%; EC50 [8]: 2300 nM

Which results are given for CC[C@H](C)[C@H](NC(=O)[C@H](Cc1ccccc1)NC(=O)[C@H](CCC(=O)O)NC(=O)[C@H](CCCCN)NC(=O)[C@H](C)NC(=O)[C@H](C)NC(=O)[C@H](CCC(N)=O)NC(=O)CNC(=O)[C@H](CCC(=O)O)NC(=O)[C@H](CC(C)C)NC(=O)[C@H](Cc1ccc(O)cc1)NC(=O)[C@H](CO)NC(=O)[C@H](CO)NC(=O)[C@@H](NC(=O)[C@H](CC(=O)O)NC(=O)[C@H](CO)NC(=O)[C@@H](NC(=O)[C@H](Cc1ccccc1)NC(=O)[C@@H](NC(=O)CNC(=O)[C@H](CCC(=O)O)NC(=O)[C@H](C)NC(=O)[C@@H](N)Cc1c[nH]cn1)[C@H](C)O)[C@@H](C)O)C(C)C)C(=O)N[C@@H](C)C(=O)N[C@@H](Cc1c[nH]c2ccccc12)C(=O)N[C@@H](CC(C)C)C(=O)N[C@H](C(=O)N[C@@H](CCCCN)C(=O)NCC(=O)N[C@@H](CCCNC(=N)N)C(=O)O)C(C)C?
EC50 (Secretin receptor): 800 nM; degraded [7]: 8.1%

Which results are given for CC(C)C[C@H](NC(=O)[C@H](Cc1ccccc1)NC(=O)[C@H](CCCNC(=N)N)NC(=O)[C@H](CCC(N)=O)NC(=O)[C@H](CC(C)C)NC(=O)C(C)(C)NC(=O)[C@H](C)NC(=O)[C@H](CCC(=O)O)NC(=O)[C@H](CCC(=O)O)NC(=O)[C@H](CCCCNC(=O)COCCOCCNC(=O)COCCOCCNC(=O)CC[C@H](NC(=O)CCCCCCCCCCCCCCCCCCC(=O)O)C(=O)O)NC(=O)[C@H](CC(C)C)NC(=O)[C@H](Cc1ccc(O)cc1)NC(=O)[C@H](CO)NC(=O)[C@@H](NC(=O)[C@H](CC(=O)O)NC(=O)[C@H](CO)NC(=O)[C@@H](NC(=O)[C@H](Cc1ccccc1)NC(=O)[C@@H](NC(=O)CNC(=O)[C@H](CCC(=O)O)NC(=O)C(C)(C)NC(=O)[C@@H](N)Cc1c[nH]cn1)[C@@H](C)O)[C@@H](C)O)C(C)C)C(=O)N[C@@H](CCC(=O)O)C(=O)N[C@@H](Cc1c[nH]cn1)C(=O)N[C@@H](CC(C)C)C(=O)N[C@H](C(N)=O)C(C)C (H-H[Aib]EGTFTSDVSYLK([AEEA-AEEA-γGlu-C20 diacid])EEA[Aib]LQRFLEHLV-NH2)?
degraded ([6]; read-out: Drug degradation): 1.4%; Cp [9]: Dose-Dependent Effect; degraded [7]: 0.55%; Activity [10]: Dose-Dependent Effect
